Consider 26 molecules from ChEMBL document CHEMBL1128478, “Structure-activity relationships of the potent combined endothelin-A/endothelin-B receptor antagonist Ac-DDip16-Leu-Asp-Ile-Ile-Trp21: development of endothelin-B receptor selective antagonists” (J Med Chem, 1995).

Numbered stars: 1 amine (or outer) side, 2 acyl side, 3 side chain; on linkers, the order of the positions; unused ones are H or OH. Square brackets hold non-standard residues; d marks the D form. Peptide text beside a SMILES is read from it. dGly(5-dibenzosuberyl) = N[C@@H](C(=O)O)C1c2ccccc2CCc2ccccc21; X3 = O=C([C@@H](N[*:1])C(c1ccccc1)(c1ccccc1)c1ccccc1)[*:2]; Ala(1-Adamantyl) = N[C@@H](CC12CC3CC(CC(C3)C1)C2)C(=O)O; X4 = Cc1c(C)c(C)c(C[C@@H](N[*:1])C(=O)[*:2])c(C)c1C; dDip = N[C@@H](C(=O)O)C(c1ccccc1)c1ccccc1; Dip = N[C@H](C(=O)O)C(c1ccccc1)c1ccccc1; 3Pal = N[C@@H](Cc1cccnc1)C(=O)O; Orn = NCCC[C@H](N)C(=O)O

The experiment has as its target T1, Endothelin receptor type B (Rattus norvegicus, UniProt P21451).
T1 sequence (P21451 whole entry): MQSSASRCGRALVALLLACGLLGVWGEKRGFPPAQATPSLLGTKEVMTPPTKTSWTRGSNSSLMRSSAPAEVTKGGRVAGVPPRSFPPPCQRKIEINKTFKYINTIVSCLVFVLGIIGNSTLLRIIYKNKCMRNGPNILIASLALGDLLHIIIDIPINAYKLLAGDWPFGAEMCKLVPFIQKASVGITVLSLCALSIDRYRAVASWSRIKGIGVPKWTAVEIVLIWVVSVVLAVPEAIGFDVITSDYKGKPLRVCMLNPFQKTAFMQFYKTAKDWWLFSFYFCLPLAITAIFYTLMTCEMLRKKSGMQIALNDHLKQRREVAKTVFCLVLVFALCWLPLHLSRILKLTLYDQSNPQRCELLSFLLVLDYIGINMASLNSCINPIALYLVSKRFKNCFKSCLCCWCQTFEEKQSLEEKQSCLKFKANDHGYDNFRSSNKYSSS
Description: Binding affinity against endothelin B receptor rat cerebellar membranes.
As usually defined, the IC50 is the concentration at which inhibition is half-maximal. The molecule `CC[C@H](C)[C@@H]1NC(=O)[C@H](CC(=O)O)NC(=O)[C@@H](NC(=O)[C@H](NC(C)=O)C(c2ccccc2)c2ccccc2)CSSC[C@@H](C(=O)N[C@@H](Cc2c[nH]c3ccccc23)C(=O)O)NC1=O` returned an IC50 above 1 µM.

In the case of `CC[C@H](C)[C@@H]1NC(=O)[C@H](CC(=O)O)NC(=O)[C@H](CC(C)C)NC(=O)[C@@H](C2c3ccccc3CCc3ccccc32)NC(=O)[C@H](Cc2c[nH]c3ccccc23)NC(=O)[C@H]([C@@H](C)CC)NC1=O`, the IC50 is above 10 µM.

As to `CC[C@H](C)[C@@H]1NC(=O)[C@H](CC(=O)O)NC(=O)[C@H](CC(C)C)NC(=O)[C@@H](C(c2ccccc2)c2ccccc2)NC(=O)[C@H](Cc2c[nH]c3ccccc23)NC(=O)[C@H]([C@@H](C)CC)NC1=O`, the IC50 turned out to be 1.6 µM. That is a single-digit micromolar value.

In turn, `CC[C@H](C)[C@H](NC(=O)[C@H](CC(=O)O)NC(=O)[C@H](CC(C)C)NC(=O)[C@H](NC(C)=O)C(c1ccccc1)c1ccccc1)C(=O)N[C@H](C(=O)N[C@@H](Cc1ccccc1)C(=O)O)[C@@H](C)CC` registered an IC50 of 6.8 µM.

`CC[C@H](C)[C@H](NC(=O)[C@H](CC1CCCCC1)NC(=O)[C@H](CC(=O)O)NC(=O)[C@H](CC(C)C)NC(=O)[C@H](NC(C)=O)C(c1ccccc1)c1ccccc1)C(=O)N[C@@H](Cc1c[nH]c2ccccc12)C(=O)O`: the IC50 is 0.21 µM.

As for `CC[C@H](C)[C@H](NC(=O)[C@H](Cc1ccc(O)cc1)NC(=O)[C@H](CC(C)C)NC(=O)[C@H](NC(C)=O)C(c1ccccc1)c1ccccc1)C(=O)N[C@H](C(=O)N[C@@H](Cc1c[nH]c2ccccc12)C(=O)O)[C@@H](C)CC`, the IC50 turned out to be 0.08 µM. Compared with the last molecule, the IC50 is about 2.6-fold lower.

With `CC[C@H](C)[C@H](NC(=O)[C@H](CC(=O)O)NC(=O)[C@H](CC(C)C)NC(=O)[C@H](NC(C)=O)C(c1ccccc1)c1ccccc1)C(=O)N[C@@H](Cc1ccccc1)C(=O)N[C@@H](Cc1c[nH]c2ccccc12)C(=O)O`, the IC50 was found to be 7.5 µM.

On to `CC[C@H](C)[C@H](NC(=O)[C@H](CC(=O)O)NC(=O)[C@@H](Cc1ccccc1)NC(=O)[C@@H](NC(C)=O)C(c1ccccc1)c1ccccc1)C(=O)N[C@H](C(=O)N[C@@H](Cc1c[nH]c2ccccc12)C(=O)O)[C@@H](C)CC`, for which the IC50 came to 0.74 µM. This IC50 lies about 10-fold lower than the previous one.

With `CC[C@H](C)[C@H](NC(=O)[C@H](CCCCN)NC(=O)[C@H](CC(=O)O)NC(=O)[C@H](CC(C)C)NC(=O)[C@H](NC(C)=O)C(c1ccccc1)c1ccccc1)C(=O)N[C@@H](Cc1c[nH]c2ccccc12)C(=O)O`, the IC50 stood at 3.7 µM.

In turn, `CC[C@H](C)[C@@H]1NC(=O)[C@H](CC(=O)O)NC(=O)[C@H](CC(C)C)NC(=O)[C@@H](Cc2ccccc2)NC(=O)[C@H](Cc2c[nH]c3ccccc23)NC(=O)[C@H]([C@@H](C)CC)NC1=O` came in with an IC50 above 10 µM.

In turn, `CC[C@H](C)[C@H](NC(=O)[C@H](C)NC(=O)[C@H](CC(=O)O)NC(=O)[C@H](CC(C)C)NC(=O)[C@H](NC(C)=O)C(c1ccccc1)c1ccccc1)C(=O)N[C@@H](Cc1c[nH]c2ccccc12)C(=O)O` came in with a half-inhibitory concentration (IC50) of 0.33 µM. That is a sub-micromolar value.

`CC[C@H](C)[C@H](NC(=O)[C@H](CC(=O)O)NC(=O)[C@H](CC(C)C)NC(=O)[C@H](NC(C)=O)C(c1ccccc1)c1ccccc1)C(=O)N[C@@H](CC(C)C)C(=O)N[C@@H](Cc1c[nH]c2ccccc12)C(=O)O`: the half-maximal inhibitory concentration (IC50) was 0.73 µM.

In the case of `CC[C@H](C)[C@H](NC(=O)[C@H](CC(=O)O)NC(=O)[C@H](CC(C)C)NC(=O)[C@H](CC12CC3CC(CC(C3)C1)C2)NC(C)=O)C(=O)N[C@H](C(=O)N[C@@H](Cc1c[nH]c2ccccc12)C(=O)O)[C@@H](C)CC` (Ac-[Ala(1-Adamantyl)]LDIIW-OH), the IC50 is 2 µM.

Regarding `CC[C@H](C)[C@H](NC(=O)[C@H](C)NC(=O)[C@H](CC(C)C)NC(=O)[C@@H](NC(C)=O)C(c1ccccc1)c1ccccc1)C(=O)N[C@H](C(=O)N[C@@H](Cc1c[nH]c2ccccc12)C(=O)O)[C@@H](C)CC` (Ac-[Dip]LAIIW-OH), the IC50 came to 0.016 µM.

Regarding `CC[C@H](C)[C@H](NC(=O)[C@H](CC(=O)O)NC(=O)[C@H](CC(C)C)NC(=O)[C@@H](NC(C)=O)C(c1ccccc1)c1ccccc1)C(=O)N[C@@H](CCC(=O)O)C(=O)N[C@@H](Cc1c[nH]c2ccccc12)C(=O)O` (Ac-[Dip]LDIEW-OH), the IC50 is above 10 µM.

With `CC[C@H](C)[C@H](NC(=O)[C@H](CC(=O)O)NC(=O)[C@H](CC(C)C)NC(=O)[C@@H](NC(C)=O)C(c1ccccc1)c1ccccc1)C(=O)N[C@H](C(=O)N[C@@H](Cc1ccc(O)cc1)C(=O)O)[C@@H](C)CC` (Ac-[Dip]LDIIY-OH), the concentration for half-maximal inhibition (IC50) is 6.1 µM.

As to `CC[C@H](C)[C@H](NC(=O)[C@H](CC(=O)O)NC(=O)[C@H](CC(C)C)NC(=O)[C@@H](NC(C)=O)C(c1ccccc1)c1ccccc1)C(=O)N[C@H](C(=O)N[C@@H](Cc1cccnc1)C(=O)O)[C@@H](C)CC` (Ac-[Dip]LDII[3Pal]-OH), the IC50 was above 10 µM.

For `CC[C@H](C)[C@H](NC(=O)[C@H](CC(=O)O)NC(=O)[C@H](CC(C)C)NC(=O)[C@@H](NC(C)=O)C(c1ccccc1)c1ccccc1)C(=O)N[C@@H](CCCCN)C(=O)N[C@@H](Cc1c[nH]c2ccccc12)C(=O)O` (Ac-[Dip]LDIKW-OH), the IC50 amounted to 4.7 µM.

Take `CC[C@H](C)[C@H](NC(=O)[C@H](CC(=O)O)NC(=O)[C@H](CC(C)C)NC(=O)[C@@H](NC(C)=O)C(c1ccccc1)c1ccccc1)C(=O)N[C@H](C(=O)N[C@@H](Cc1c[nH]c2ccccc12)C(=O)O)C(C)C` (Ac-[Dip]LDIVW-OH): the IC50 worked out at 1.4 µM. This IC50 is about 3.4-fold lower than that of the molecule before.

Molecule `CC[C@H](C)[C@H](NC(=O)[C@@H](NC(=O)[C@H](CC(=O)O)NC(=O)[C@H](CC(C)C)NC(=O)[C@@H](NC(C)=O)C(c1ccccc1)c1ccccc1)C(C)C)C(=O)N[C@@H](Cc1c[nH]c2ccccc12)C(=O)O` (Ac-[Dip]LDVIW-OH) had an IC50 of 0.051 µM.

In the case of `CC[C@H](C)[C@H](NC(=O)[C@H](Cc1ccc(O)cc1)NC(=O)[C@H](CC(=O)O)NC(=O)[C@H](CC(C)C)NC(=O)[C@@H](NC(C)=O)C(c1ccccc1)c1ccccc1)C(=O)N[C@@H](Cc1c[nH]c2ccccc12)C(=O)O` (Ac-[Dip]LDYIW-OH), the half-inhibitory concentration (IC50) stood at 0.012 µM.

In turn, `CC[C@H](C)[C@H](NC(=O)[C@H](CC(=O)O)NC(=O)[C@H](CCCN)NC(=O)[C@@H](NC(C)=O)C(c1ccccc1)c1ccccc1)C(=O)N[C@H](C(=O)N[C@@H](Cc1c[nH]c2ccccc12)C(=O)O)[C@@H](C)CC` (Ac-[Dip][Orn]DIIW-OH) registered an IC50 of 0.15 µM.

`CC[C@H](C)[C@H](NC(=O)[C@H](CC(=O)O)NC(=O)[C@H](CC(C)C)NC(=O)[C@@H](NC(C)=O)C(c1ccccc1)(c1ccccc1)c1ccccc1)C(=O)N[C@H](C(=O)N[C@@H](Cc1c[nH]c2ccccc12)C(=O)O)[C@@H](C)CC` (Ac-[X3]LDIIW-OH) returned an IC50 of 5.9 µM.

`CC[C@H](C)[C@H](NC(=O)[C@H](CC(=O)O)NC(=O)[C@H](CC(C)C)NC(=O)[C@@H](Cc1c(C)c(C)c(C)c(C)c1C)NC(C)=O)C(=O)N[C@H](C(=O)N[C@@H](Cc1c[nH]c2ccccc12)C(=O)O)[C@@H](C)CC` (Ac-[X4]LDIIW-OH) had an IC50 of 2.4 µM. This IC50 lies about 2.5-fold lower than the previous one.

`CC[C@H](C)[C@H](NC(=O)[C@H](CCC(=O)O)NC(=O)[C@H](CC(=O)O)NC(=O)[C@H](CC(C)C)NC(=O)[C@H](NC(C)=O)C(c1ccccc1)c1ccccc1)C(=O)N[C@@H](Cc1c[nH]c2ccccc12)C(=O)O` (Ac-[dDip]LDEIW-OH): the IC50 is 6 µM.

Consider `CC[C@H](C)[C@H](NC(=O)[C@H](CC(=O)O)NC(=O)[C@H](CC(C)C)NC(=O)[C@H](NC(C)=O)C1c2ccccc2CCc2ccccc21)C(=O)N[C@H](C(=O)N[C@@H](Cc1c[nH]c2ccccc12)C(=O)O)[C@@H](C)CC` (Ac-[dGly(5-dibenzosuberyl)]LDIIW-OH), for which the IC50 worked out at 0.015 µM.
